# Reference: patent publication US20220324835A1 (Nurix Therapeutics, Inc., priority 2018, published 2022)
# Key:
# Assay type in all cases: cell-based
# [1] = system: primary human total T-cells; assay: T-cell activation assessed by CD69 expression
# Outline: (§1)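 Readouts are fold change versus compound-free cells under the same stimulation: plate-bound anti-CD3 (OKT3, 10 μg/mL coating) alone or with soluble anti-CD28 at 5 μg/mL, for 48 h. Isolated human total T cells (1×10^5/well) got inhibitor 1 h beforehand at concentrations such as 10, 1.11 or 0.123 μM. Measured: GM-CSF/IFNγ/TNFα secretion, surface CD69, proliferation by dye dilution.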
# [2] = system: primary human total T-cells; assay: T-cell activation assessed by cell proliferation (Cell Trace Violet)
# Outline: as §1
# [3] = system: primary human total T-cells; assay: T-cell activation assessed by cytokine secretion (GM-CSF, IFNγ, TNFα)
# Outline: as §1
# [4] = CD3/CD28 stimulation, CD4 T-cells, read-out: % CD69+ (CD4)
# [5] = CD3/CD28 stimulation, CD8 T-cells, read-out: % CD69+ (CD8)
# [6] = CD3 alone stimulation, CD4 T-cells, read-out: % CD69+ (CD4)
# [7] = CD3 alone stimulation, CD8 T-cells, read-out: % CD69+ (CD8)
# [8] = CD3/CD28 stimulation, CD4 T-cells, read-out: % CP (cell proliferation) (CD4)
# [9] = CD3/CD28 stimulation, CD8 T-cells, read-out: % CP (cell proliferation) (CD8)
# [10] = CD3 alone stimulation, CD8 T-cells, read-out: % CP (cell proliferation) (CD8)
# [11] = CD3/CD28 stimulation, read-out: GM-CSF secretion
# [12] = CD3/CD28 stimulation, read-out: IFNγ secretion
# [13] = CD3/CD28 stimulation, read-out: TNFα secretion
# [14] = CD3 alone stimulation, read-out: GM-CSF secretion
# [15] = CD3 alone stimulation, read-out: IFNγ secretion
# [16] = CD3 alone stimulation, read-out: TNFα secretion
smiles,measurement,setting,value
"Cn1cnnc1CC1(c2cccc(N3Cc4c(cc(CN5CCC6(CC6)C5)cc4C(F)(F)F)C3=O)c2)COC1 [Compound 520, 6-((5-azaspiro[2.4]heptan-5-yl)methyl)-2-(3-(3-((4-methyl-4H-1,2,4-triazol-3-yl)methyl)oxetan-3-yl)phenyl)-4-(trifluoromethyl)isoindolin-1-one]",fold induction at 1.11 µM,[1]; [4],> 1.6
same,fold induction at 10 µM,[1]; [4],> 1.6
same,fold induction at 1.11 µM,[1]; [5],1.2 to 1.4
same,fold induction at 10 µM,[1]; [5],1.2 to 1.4
same,fold induction at 1.11 µM,[1]; [6],> 1.6
same,fold induction at 10 µM,[1]; [6],> 1.6
same,fold induction at 1.11 µM,[1]; [7],1.4 to 1.6
same,fold induction at 10 µM,[1]; [7],1.4 to 1.6
same,fold induction at 1.11 µM,[2]; [8],> 4
same,fold induction at 10 µM,[2]; [8],> 4
same,fold induction at 1.11 µM,[2]; [9],> 4
same,fold induction at 10 µM,[2]; [9],> 4
same,fold induction at 1.11 µM,[2]; [10],> 4
same,fold induction at 10 µM,[2]; [10],> 4
same,fold induction at 1.11 µM,[3]; [11],> 4
same,fold induction at 1.11 µM,[3]; [12],> 4
same,fold induction at 1.11 µM,[3]; [13],2.01 to 4
same,fold induction at 10 µM,[3]; [11],> 4
same,fold induction at 10 µM,[3]; [12],> 4
same,fold induction at 10 µM,[3]; [13],> 4
same,fold induction at 1.11 µM,[3]; [14],2.01 to 4
same,fold induction at 1.11 µM,[3]; [15],> 4
same,fold induction at 1.11 µM,[3]; [16],2.01 to 4
same,fold induction at 10 µM,[3]; [14],> 4
same,fold induction at 10 µM,[3]; [15],> 4
same,fold induction at 10 µM,[3]; [16],2.01 to 4
